By melting point is commonly meant the temperature, or range, at which the solid turns liquid.

SMILES strings stand for the structures. Read-outs that look alike come from different tables or passages of the source.

Drawing on article PMC9157788, “Design, Synthesis, and Apoptosis-Promoting Effect Evaluation of Rhopaladins’ Analog 4-Arylidene-5-Oxopyrrolidine Derivatives” (Frontiers in Chemistry, 2022), this text covers IC50 and melting point for four compounds.

In data set [1] the test system is LO2 cells. Set-up: method as in Kong et al., 2021. Conditions: normal liver LO2 cells, MTT; ref Kong et al., 2021; read-out: Half inhibitory concentration (IC50), LO2; cited from earlier work.
In data set [2] the test system is HeLa cells. Set-up: method as in Kong et al., 2021. Conditions: MTT, ref Kong et al., 2021, read-out: Half inhibitory concentration (IC50), HeLa; cited from earlier work.
Data set [3] relates to C-33A cells. Further details: method as in Kong et al., 2021. To be noted: MTT, ref Kong et al., 2021, read-out: Half inhibitory concentration (IC50), C-33A; cited from earlier work.
Data set [4] concerns CaSki cells. Set-up: method as in Kong et al., 2021. To be noted: MTT, ref Kong et al., 2021, read-out: Half inhibitory concentration (IC50), CaSki; cited from earlier work.
For data set [5], the system named is HepG2 cells. Set-up: method as in Kong et al., 2021. Conditions: MTT, ref Kong et al., 2021, read-out: Half inhibitory concentration (IC50), HepG2; cited from earlier work.
For data set [6], the system named is SiHa cells. Set-up: method as in Kong et al., 2021. To be noted: MTT, ref Kong et al., 2021, read-out: Half inhibitory concentration (IC50), SiHa; cited from earlier work.
Data set [7] deals with 7402 cells. Set-up: method as in Kong et al., 2021. To be noted: MTT, ref Kong et al., 2021, read-out: Half inhibitory concentration (IC50), 7402; cited from earlier work.
For data set [8], the system named is CaSki cells. The experiment in a line: MTT cell viability assay, CaSki. The format is cell-based. To be noted: Homo sapiens, Ca-Ski, 48 h, read-out: Half inhibitory concentration (IC50), CaSki. How it is done:
(§1) HepG2 (human epidermoid hepatocellular carcinoma cell), 7402 (human epidermoid hepatocellular carcinoma cell), C-33A (human epidermoid cervical carcinoma cell), and HeLa (human epidermoid cervical adenocarcinoma cell) were incubated in Dulbecco’s modified Eagle’s medium (DMEM), which was purchased from Gibco (Grand Island, NY, United States). SiHa cells (human epidermoid cervical squamous cell carcinoma) were incubated in minimum essential medium (MEM, also from Gibco). CaSki (human epidermoid cervical carcinoma cell) and LO2 (human normal liver cell) were incubated in minimum essential medium (MEM, also from Gibco). All cells were maintained at 37°C in a humidified incubator with 5% carbon dioxide, and the media contained 10% fetal bovine serum (FBS, Corning, United States) and 1% penicillin–streptomycin antibiotic solution (Corning, United States). SiHa and CaSki were bought from the China Center for Type Culture Collection (CCTCC). The other five types of cancer cell lines were obtained from the Experiment Center of Medicine, Sinopharm Dongfeng Hospital, Hubei University of Medicine. The compounds were dissolved in dimethyl sulfoxide (DMSO, MP Biomedicals, United States), and cisplatin was purchased from Aladdin, Shanghai, China. The control (0 μM) group was treated with DMSO only in the same conditions, and the DMSO content in the medium was less than 0.1%.
(§2) Cell viability was measured by a 3-(4,5-dimethylthiazol-2-yl)-2,5-diphenyltetrazolium bromide (MTT, MultiSciences, China) assay. The specific experimental steps referred to our previous research ([Zhu et al., 2020]). For each cell line, cells were digested and seeded in 96-well plates at a density of 1 × 10^3 cells/well. […] Then, the formed formazan crystals were dissolved in DMSO, and the plates were estimated in a […] microplate reader (BioTek Inc., Bio-Tek MQX200) at a wavelength of 490 nm. Optical density (OD) values were obtained, and the inhibition rate and IC50 of each compound on different cells were calculated by GraphPad Prism 8.0.1 software. […]
(Tetrazolium assays rely on reduction of a dye to a coloured formazan, in cell work by metabolically active cells.)

Data set [9] has as its system SiHa cells. The experiment in a line: MTT cell viability assay, SiHa. The format is cell-based. Conditions: Homo sapiens, 48 h, read-out: Half inhibitory concentration (IC50), SiHa. How it is done:
as §1, §2

For data set [10], the system named is C-33A cells. The experiment in a line: MTT cell viability assay, C-33A. The format is cell-based. Conditions: Homo sapiens, 48 h, read-out: Half inhibitory concentration (IC50), C-33A. The protocol: as §1, §2
Data set [11] concerns HeLa cells. The data set is described as follows: MTT cell viability assay, HeLa. The format is cell-based. To be noted: Homo sapiens, 48 h, read-out: Half inhibitory concentration (IC50), HeLa. The protocol: as §1, §2
In data set [12] the test system is LO2 cells. The data set is described as follows: MTT cell viability assay, normal liver LO2. The format is cell-based, human. Conditions: Homo sapiens, L02, normal liver LO2 cells, 48 h, read-out: Half inhibitory concentration (IC50), LO2. The protocol:
as §1
Cell viability was measured by a 3-(4,5-dimethylthiazol-2-yl)-2,5-diphenyltetrazolium bromide (MTT, MultiSciences, China) assay. The specific experimental steps referred to our previous research ([Zhu et al., 2020]). For each cell line, cells were digested and seeded in 96-well plates at a density of 1 × 10^3 cells/well. After 24 h of culture, the cells were adherent and treated with varying concentrations of RPDPRH (0, 3.125, 6.25, 12.5, 25, 50, and 100 μM). Cells without treatment were used as a solvent control group (0 μM, DMSO) and those with cisplatin treatment served as a positive control. After 48 h of treatment, MTT solution was added and incubated for 4 h. Then, the formed formazan crystals were dissolved in DMSO, and the plates were estimated in a […] microplate reader (BioTek Inc., Bio-Tek MQX200) at a wavelength of 490 nm. Optical density (OD) values were obtained, and the inhibition rate and IC50 of each compound on different cells were calculated by GraphPad Prism 8.0.1 software. Cell inhibition rate (%) = 1− [(OD experimental-OD blank)/(OD control-OD blank)] × 100%.

For data set [13], the system named is HepG2 cells. The experiment in a line: MTT cell viability assay, HepG2. The format is cell-based. Conditions: Homo sapiens, 48 h, read-out: Half inhibitory concentration (IC50), HepG2. The protocol: as §1, §2
Data set [14] has as its system 7402 cells. The experiment in a line: MTT cell viability assay, 7402. It is filed as cell-based. Conditions: Homo sapiens, 48 h, read-out: Half inhibitory concentration (IC50), 7402. How it is done:
as §1, §2

With `N.N.[Cl][Pt][Cl]` [Cisplatin, cisplatin, reference compound], the IC50 in the data set on LO2 cells [1] is 17.3 µM; in the data set on HeLa cells [2] it was 47.5 µM; in the data set with C-33A cells [3], 48.2 µM; in the data set on CaSki cells [4], 17.5 µM; in the data set with HepG2 cells [5], 19.3 µM; in the data set with SiHa cells [6] it was 37.1 µM. Moreover, the IC50 in the data set on 7402 cells [7] is 48.5 µM.

Compound `O=C1/C(=C/c2ccccc2)CC(/C=C/c2ccccc2)(C(=O)NC2CCCCC2)N1c1ccc(Cl)cc1` (stereo not drawn) [RPDPRI, (2E, 4E)-4-benzylidene-1-(4-chlorophenyl)-N-cyclohexyl-5-oxo-2-styrylpyrrolidine-2-carboxamide] showed a melting point of 209 to 210 °C. For the same compound, the IC50 in the data set with CaSki cells [8] is over 100 µM. Also, the IC50 with SiHa cells [9] was over 100 µM. Besides, the IC50 in the data set on C-33A cells [10] was over 100 µM. For the same compound, the IC50 in the data set on HeLa cells [11] is over 100 µM. In the data set on LO2 cells [12], the IC50 is over 100 µM. Moreover, in the data set on HepG2 cells [13], the IC50 is over 100 µM. In addition, the IC50 in the data set with 7402 cells [14] is over 100 µM.

Consider `O=C1/C(=C/c2ccc(Cl)cc2)CC(/C=C/c2ccccc2)(C(=O)NC2CCCCC2)N1c1ccc(Cl)cc1` (stereo not drawn) [RPDPRK, (2E, 4E)-4-(4-chlorobenzylidene)-1-(4-chlorophenyl)-N-cyclohexyl-5-oxo-2-styryl pyrrolidine-2-carboxamide], for which the IC50 with CaSki cells [8] was 46.4 µM; in the data set on SiHa cells [9] it was 67.3 µM; in the data set with C-33A cells [10], 89.5 µM; with HeLa cells [11] it was 44.7 µM; in the data set with LO2 cells [12], over 100 µM; with HepG2 cells [13] it was over 100 µM. In addition, the IC50 with 7402 cells [14] was over 100 µM.

The compound `O=C1/C(=C/c2ccccc2)CC(/C=C/c2ccc(Cl)cc2)(C(=O)NC2CCCCC2)N1c1ccc(F)cc1` (stereo not drawn) [RPDPRO, (2E, 4E)-2-(4-chlorostyryl)-4-benzylidene-N-cyclohexyl-1-(4-fluorophenyl)-5-oxopyrrolidine-2-carboxamide] yielded a melting point of 142 to 144 °C. Also, in the data set with LO2 cells [1], the IC50 is 86.8 µM. In addition, the IC50 in the data set on HeLa cells [2] is 21.4 µM. For the same compound, the IC50 with C-33A cells [3] is 5.56 µM. In the data set on CaSki cells [4], the IC50 is 9.15 µM. Moreover, the IC50 with HepG2 cells [5] is 14.5 µM. The IC50 with SiHa cells [6] was 12.5 µM. Further, in the data set with 7402 cells [7], the IC50 is 31.2 µM.
